Laboratory results: US20120245213A1, “HUMAN TYPE I TASTE RECEPTOR SUBUNIT 3 MODULATORS AND METHODS OF USING SAME” (priority 2009, published 2012)
Where two headings read alike, the source gives them in different places.

Legend:
[1] = biological target: T1, human T1R2+T1R3 receptor (Homo sapiens, UniProt Q7RTX0); test: Heterologous calcium mobilization assay, HEK293 cells expressing human sweet receptor; assay type: cell-based; details: for inhibition of the human sweet receptor: at up to 500 μM
T1 construct: expressed in transfected cells; host or cells: HEK293E
T1 sequence (Q7RTX0 21-852): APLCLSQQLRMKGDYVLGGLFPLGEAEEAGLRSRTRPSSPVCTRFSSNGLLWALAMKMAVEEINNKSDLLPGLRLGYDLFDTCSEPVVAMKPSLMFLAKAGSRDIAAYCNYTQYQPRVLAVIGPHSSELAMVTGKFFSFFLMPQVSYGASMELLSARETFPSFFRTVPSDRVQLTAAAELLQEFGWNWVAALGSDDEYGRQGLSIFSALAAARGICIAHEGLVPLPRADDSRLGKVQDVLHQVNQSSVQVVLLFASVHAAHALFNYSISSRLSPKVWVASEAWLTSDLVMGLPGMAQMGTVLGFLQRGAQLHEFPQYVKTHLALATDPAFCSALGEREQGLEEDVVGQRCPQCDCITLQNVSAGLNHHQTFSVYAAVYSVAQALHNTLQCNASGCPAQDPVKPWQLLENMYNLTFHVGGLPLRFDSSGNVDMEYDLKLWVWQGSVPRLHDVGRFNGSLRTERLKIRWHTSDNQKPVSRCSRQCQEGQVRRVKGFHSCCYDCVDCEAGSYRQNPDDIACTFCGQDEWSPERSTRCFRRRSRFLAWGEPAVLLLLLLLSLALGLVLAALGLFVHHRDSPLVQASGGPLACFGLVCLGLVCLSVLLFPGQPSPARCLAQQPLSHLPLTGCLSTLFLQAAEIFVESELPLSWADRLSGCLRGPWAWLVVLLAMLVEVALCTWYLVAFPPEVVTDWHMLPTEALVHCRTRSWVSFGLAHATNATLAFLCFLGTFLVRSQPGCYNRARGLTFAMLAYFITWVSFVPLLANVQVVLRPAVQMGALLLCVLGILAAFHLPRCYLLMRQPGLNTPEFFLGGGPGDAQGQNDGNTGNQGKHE
T1 sequence (Q8TE23 20-839 partner): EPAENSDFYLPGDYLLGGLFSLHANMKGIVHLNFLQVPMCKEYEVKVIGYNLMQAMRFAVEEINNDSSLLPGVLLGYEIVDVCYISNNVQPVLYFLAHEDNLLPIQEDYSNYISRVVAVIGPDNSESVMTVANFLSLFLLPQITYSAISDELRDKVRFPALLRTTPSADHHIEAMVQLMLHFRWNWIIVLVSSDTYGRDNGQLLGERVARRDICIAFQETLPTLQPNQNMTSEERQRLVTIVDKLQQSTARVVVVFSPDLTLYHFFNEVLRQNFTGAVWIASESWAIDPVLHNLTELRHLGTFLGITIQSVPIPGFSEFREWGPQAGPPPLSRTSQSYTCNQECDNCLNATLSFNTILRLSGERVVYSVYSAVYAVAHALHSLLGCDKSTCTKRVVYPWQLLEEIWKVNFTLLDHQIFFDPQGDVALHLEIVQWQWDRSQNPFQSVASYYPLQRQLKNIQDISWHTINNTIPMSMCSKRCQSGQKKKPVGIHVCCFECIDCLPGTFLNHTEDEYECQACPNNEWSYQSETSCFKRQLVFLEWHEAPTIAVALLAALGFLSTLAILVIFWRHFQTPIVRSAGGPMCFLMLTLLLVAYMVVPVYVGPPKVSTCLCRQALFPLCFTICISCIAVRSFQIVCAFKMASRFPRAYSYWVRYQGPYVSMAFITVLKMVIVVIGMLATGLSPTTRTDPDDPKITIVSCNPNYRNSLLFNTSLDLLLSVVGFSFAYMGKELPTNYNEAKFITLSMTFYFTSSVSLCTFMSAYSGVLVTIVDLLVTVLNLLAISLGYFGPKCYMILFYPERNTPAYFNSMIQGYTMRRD
Description: T1R2+T1R3 subunits were transfected into HEK cells along with the promiscuous Gq-type protein G16-gust44. Activation of receptors by agonists was followed using the calcium-sensitive fluorescent dye fluo-4-AM in a 96-well format with the fluorescent microplate reader Flexstation II (Molecular Devices). Inhibitors were added concomitantly with the sweetener sucralose at 2.5 mM (saturating concentration). […] Fluorescence signal (F) is expressed in arbitrary units (AU). The down arrow indicates the injection of the sweetener-inhibitors mixture on the cells. […] Peak calcium signal is expressed as ΔF/F in %, normalized to control (sucralose alone). Data are from a representative experiment, means±SD, done in quadruplicate.
HEK293E cells were cultured at 37° C. in Optimem GlutaMAX culture medium (Invitrogen) supplemented with 4% dialyzed fetal bovine serum. Cells were transfected with the DNA constructs using lipofectamine-2000 according to the manufacturer's protocol (Invitrogen). Briefly, cells were seeded onto 96-well poly-D-lysine plates (Corning) at about 12,500 cells/well 18 hours prior to transfection; and co-transfected with plasmid DNAs encoding […] and G 16-gust44 (0.1 μg total DNA/well; 0.2 μl lipofectamine/well). After 24 hours, the transfected cells were washed once with the culture medium and incubated for another 24 hours. The cells were washed with HBSS supplemented with 20 mM Hepes (HBSS-H), loaded with 3 μM Fluo-4AM (Molecular Probe) in HBSS-H buffer, incubated for 1.5 hours at room temperature, and then washed with HBSS-H and maintained in HBSS-H at 25° C. […] Sweeteners were added 30 seconds after the start of the scan at 2× concentration in 50 μl of HBSS-H while monitoring fluorescence for an additional 200 seconds at 2 seconds intervals. Where tested, inhibitors were added along with sweeteners to the cells.
The data were expressed as the mean±S.E. of quadruplicate or sextuplicate of the F/F values, or were normalized as described. The bar graph and curving-fitting routines were carried out using Graph-Pad Prism 3.0 (GraphPad Software, Inc.).
To determine if phenoxy-herbicides and fibrates had inhibitory properties, a cell-based assay with HEK 293 cells expressing the human sweet receptor composed of hT1R3 and hT1R2 was used.
IC50s are means±SD from at least 3 independent experiments.

[2] = system: sweet and umami (MSG) taste; test: Psychophysical self-experimentation on taste; assay type: in vivo, human; details: self-experimentation by one of the inventors
Source text: T1R3's role as a critical component of sweet and umami receptors in taste cells is well established (Zhao, supra; and Max, supra). T1R3, like gustducin, has also been implicated in glucose-sensing functions of gut endocrine cells and thereby in glucose homeostasis (Jang, supra).

[3] = HEK 293 cells, hT1R2+hT1R3, 2.5 mM sucralose, read-out: IC50, inhibition of human sweet receptor
[4] = hT1R2+hT1R3 activated by 2.5 mM sucralose, mean (SD), at least 3 independent experiments, read-out: IC50 (μM (SD))

Question: Which IC50 [1] does the source give for `CC(Oc1cc(Cl)c(Cl)cc1Cl)C(=O)O` (centres unmarked) [2,4,5TPP, 2-(2,4,5-trichlorophenoxy) propanoic acid] here?
Answer: 5 to 12 µM

Question: For `O=C(O)COc1ccc(Cl)cc1` [4-CPA, (4-chlorophenoxy)acetic acid], which IC50 [1] is on record?
Answer: ≥ 142 µM

Question: How did the IC50 [1, 3] turn out when `CC(C)(Oc1ccc(CCNC(=O)c2ccc(Cl)cc2)cc1)C(=O)O` [Bezafibric acid, 2-[4-(2-{[(4-chlorophenyl)carbonyl]amino}ethyl)phenoxy]-2-methylpropanoic acid, reference compound] was run?
Answer: 30 to 100 µM

Question: Which results are given for `CC(C)(Oc1ccc(Cl)cc1)C(=O)O` [Clofibric acid, 2-(4-chlorophenoxy)-2-methylpropanoic acid]?
Answer: inhibition of sweet taste in vivo [2]: potently inhibited; inhibition of umami (MSG) taste in vivo [2]: potently inhibited

Question: With `Cc1ccc(C)c(OCCCC(C)(C)C(=O)O)c1` [Gemfibrozil, 5-(2,5-dimethylphenoxy)-2,2-dimethylpentanoic acid, reference compound] as the molecule, how does the IC50 [1, 3] read?
Answer: 30 to 100 µM

Question: With `O=C(O)Cc1c[nH]c2ccccc12` [IAA, 1H-indol-3-ylacetic acid] as the molecule, how does the “inhibition of the human sweet receptor” value [1] read?
Answer: did not inhibit

Question: What about the IC50 [1, 4] of the same molecule?
Answer: > 1000 µM

Question: How did the “inhibition of the human sweet receptor” value [1] turn out when `O=C(O)CCCc1c[nH]c2ccccc12` [IBA, 4-(1H-indol-3-yl)butanoic acid] was run?
Answer: did not inhibit

Question: For `O=C(O)CCc1c[nH]c2ccccc12` [IPA, 3-(1H-indol-3-yl)propanoic acid], which “inhibition of the human sweet receptor” value [1] is on record?
Answer: did not inhibit

Question: And the IC50 [1, 4]?
Answer: > 1000 µM

Question: `Cc1cc(Cl)ccc1OC(C)C(=O)O` (centres unmarked) [MCPP, 2-(4-chloro-2-methylphenoxy) propanoic acid] was tested. Which IC50 [1] did it give?
Answer: 5 to 12 µM

Question: For `O=C(O)Cc1cccc2ccccc12` [NAA, naphthalen-1-ylacetic acid], which IC50 [1, 3] is on record?
Answer: ≥ 142 µM

Question: For `O=C(O)Cc1ccccc1` [PAA, phenylacetic acid], which IC50 [1] is on record?
Answer: ≥ 142 µM
